Measured values from ChEMBL document CHEMBL5214933, “Discovery of Selenium-Containing STING Agonists as Orally Available Antitumor Agents” (J Med Chem, 2022).
Values after ≈ are worked out from the molar mass of the structure shown. Active and inactive are the calls of the source. No cut-off for these calls is given here.

How the values were obtained:
[1] = test system: MC-38; experiment: In vivo activation of STING in naive […] mouse implanted with mouse MC38 cells assessed as increase in IFN-gamma level in plasma at 30 mg/kg, po administered as single dose and measured after 4 hrs by ELISA; type: functional, organism-based
[2] = AUC (0 to infinity) in Sprague-Dawley rat at 50 mg/kg, po measured for 1440 mins by LC-MS/MS analysis; type: ADME, organism-based; parameters: time 1440 min, dose 50 mg/kg, route po; details: in vivo
[3] = test system: Mus musculus; experiment: Immunostimulatory activity in naive […] mouse implanted with mouse MC38 cells assessed as increase in CD8 T cells in spleen at 30 mg/kg, po by FACS analysis; type: functional, organism-based; details: MC-38
[4] = Stability in rat liver microsomes assessed as parent compound remaining at 1 uM incubated for 2 hrs in presence of NADPH by LC-MS/MS analysis; type: ADME, Microsome; details: read-out: Stability
[5] = test system: CT26; experiment: In vivo activation of STING in naive BALB/c mouse implanted with mouse CT26 cells assessed as increase in IFN-gamma level in plasma at 20 mg/kg, po administered as single dose and measured after 4 hrs by ELISA; type: functional, organism-based
[6] = Cmax in Sprague-Dawley rat at 50 mg/kg, po measured for 1440 mins by LC-MS/MS analysis; type: ADME, organism-based; parameters: time 1440 min, dose 50 mg/kg, route po; details: in vivo
[7] = Stability in human plasma assessed as parent compound remaining at 1 uM incubated for 24 hrs in presence of NADPH by LC-MS/MS analysis; type: ADME, cell-free; details: read-out: Stability
[8] = target: T1, Stimulator of interferon genes protein (Homo sapiens, UniProt Q86WV6); experiment: Binding affinity to recombinant human STING H232 variant expressed in Escherichia coli BL21 (DE3) assessed as dissociation constant by multicycle SPR analysis
Target sequence in this assay (Q86WV6 whole entry, looked up, change not shown): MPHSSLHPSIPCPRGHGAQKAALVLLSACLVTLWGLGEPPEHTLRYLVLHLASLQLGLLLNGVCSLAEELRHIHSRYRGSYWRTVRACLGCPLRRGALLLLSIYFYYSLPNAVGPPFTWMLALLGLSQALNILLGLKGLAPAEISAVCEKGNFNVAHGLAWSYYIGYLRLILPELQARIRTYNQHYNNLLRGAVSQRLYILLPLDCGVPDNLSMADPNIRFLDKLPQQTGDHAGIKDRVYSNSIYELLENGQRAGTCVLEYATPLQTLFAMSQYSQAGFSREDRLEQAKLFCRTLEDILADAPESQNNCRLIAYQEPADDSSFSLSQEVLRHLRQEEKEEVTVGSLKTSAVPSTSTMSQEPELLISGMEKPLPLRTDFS

[9] = Lipophilicity, logP of compound by RP-HPLC analysis; type: physicochemical
[10] = Protein binding in plasma (unknown origin) assessed as unbound fraction at 2 uM incubated for 4 hrs under shaking condition by rapid equilibrium dialysis method; type: ADME, cell-free
[11] = target: T2, Stimulator of interferon genes protein (Mus musculus, UniProt Q3TBT3); experiment: Agonist activity at STING in mouse RAW264.7 cells harboring IRF-inducible luciferase reporter construct assessed as increase in relative fluorescence unit incubated for 12 hrs by Quanti-luc reagent based assay; type: cell-based
T2 sequence (Q3TBT3 whole entry): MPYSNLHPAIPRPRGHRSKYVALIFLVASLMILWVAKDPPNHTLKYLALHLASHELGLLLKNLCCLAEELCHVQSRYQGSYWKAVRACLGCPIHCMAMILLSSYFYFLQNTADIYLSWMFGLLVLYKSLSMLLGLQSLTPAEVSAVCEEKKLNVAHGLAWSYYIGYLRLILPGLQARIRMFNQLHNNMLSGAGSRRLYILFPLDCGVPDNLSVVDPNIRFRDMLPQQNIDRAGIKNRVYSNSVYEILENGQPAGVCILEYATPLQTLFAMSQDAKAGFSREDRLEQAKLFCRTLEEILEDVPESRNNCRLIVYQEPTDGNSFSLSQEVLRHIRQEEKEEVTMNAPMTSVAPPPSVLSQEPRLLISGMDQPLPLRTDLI

[12] = Aqueous solubility of compound at 3 mg incubated for 24 hrs under shaking condition by RP-HPLC analysis; type: physicochemical; details: water
[13] = target: T1, Stimulator of interferon genes protein; experiment: Agonist activity at STING in human THP-1 cells harboring IRF-inducible luciferase reporter construct assessed as increase in TBK1 phosphorylation at 50 uM measured after 1 hrs by Western blot analysis; type: cell-based; details: filed as agonist
Target sequence in this assay (Q86WV6 whole entry): as the sequence (Q86WV6 whole entry, looked up, change not shown) above

[14] = Half life in Sprague-Dawley rat at 5 mg/kg, iv measured for 1440 mins by LC-MS/MS analysis; type: ADME, organism-based; details: in vivo
[15] = test system: MC-38; experiment: Antitumor activity against mouse MC38 cells implanted in C57BL/6 mouse assessed as tumor growth regression at 30 mg/kg, po administered once every 3 days and measured after 21 days by digital caliper analysis relative to control; type: functional; details: time 21 day
[16] = Toxicity in naive BALB/c mouse implanted with mouse 4T1-Luc cells assessed as reduction in body weight at 20 mg/kg, po measured after 15 days; type: organism-based; details: in vivo, 360 h, time 15 day
[17] = Volume of distribution at steady state in Sprague-Dawley rat at 50 mg/kg, po measured for 1440 mins by LC-MS/MS analysis; type: ADME, organism-based; details: in vivo, 24 h
[18] = test system: 4T1; experiment: Antitumor activity against mouse 4T1 cells implanted in naive BALB/c mouse assessed as tumor growth inhibition at 20 mg/kg, po administered once every 5 days and measured every 3 days by digital caliper analysis; type: functional, organism-based; details: time 5.0 day
[19] = target: T3, Stimulator of interferon genes protein (Mus musculus) (UniProt Q3TBT3); experiment: Agonist activity at STING in mouse MEF cells assessed as increase in IFNbeta mRNA expression at 10 uM measured after 3 hrs by qRT-PCR analysis; type: cell-based; details: filed as agonist
T3 sequence (whole entry): T2 sequence (Q3TBT3 whole entry)

[20] = Solubility of compound in PBS buffer at pH 7.4 at 3 mg incubated for 24 hrs under shaking condition by RP-HPLC analysis; type: physicochemical
[21] = target: T3, Stimulator of interferon genes protein (Mus musculus); experiment: Agonist activity at STING in mouse RAW264.7 cells harboring IRF-inducible luciferase reporter construct assessed as increase in […] mRNA expression at 10 to 50 uM measured after 1 hr by qRT-PCR analysis; type: cell-based; details: filed as agonist, dose 10-50 µM
[22] = AUC (0 to infinity) in Sprague-Dawley rat at 5 mg/kg, iv measured for 1440 mins by LC-MS/MS analysis; type: ADME, organism-based; parameters: dose 5 mg/kg, time 1440 min, route iv; details: in vivo
[23] = target: hERG (Homo sapiens, UniProt Q12809); experiment: Inhibition of hERG expressed in HEK293 cells at 10 uM incubated for 5 mins by QPatch automated patch-clamp technique relative to control; type: toxicity, cell-based; details: HEK293 cells that express hERG
hERG, sequence (Q12809 whole entry): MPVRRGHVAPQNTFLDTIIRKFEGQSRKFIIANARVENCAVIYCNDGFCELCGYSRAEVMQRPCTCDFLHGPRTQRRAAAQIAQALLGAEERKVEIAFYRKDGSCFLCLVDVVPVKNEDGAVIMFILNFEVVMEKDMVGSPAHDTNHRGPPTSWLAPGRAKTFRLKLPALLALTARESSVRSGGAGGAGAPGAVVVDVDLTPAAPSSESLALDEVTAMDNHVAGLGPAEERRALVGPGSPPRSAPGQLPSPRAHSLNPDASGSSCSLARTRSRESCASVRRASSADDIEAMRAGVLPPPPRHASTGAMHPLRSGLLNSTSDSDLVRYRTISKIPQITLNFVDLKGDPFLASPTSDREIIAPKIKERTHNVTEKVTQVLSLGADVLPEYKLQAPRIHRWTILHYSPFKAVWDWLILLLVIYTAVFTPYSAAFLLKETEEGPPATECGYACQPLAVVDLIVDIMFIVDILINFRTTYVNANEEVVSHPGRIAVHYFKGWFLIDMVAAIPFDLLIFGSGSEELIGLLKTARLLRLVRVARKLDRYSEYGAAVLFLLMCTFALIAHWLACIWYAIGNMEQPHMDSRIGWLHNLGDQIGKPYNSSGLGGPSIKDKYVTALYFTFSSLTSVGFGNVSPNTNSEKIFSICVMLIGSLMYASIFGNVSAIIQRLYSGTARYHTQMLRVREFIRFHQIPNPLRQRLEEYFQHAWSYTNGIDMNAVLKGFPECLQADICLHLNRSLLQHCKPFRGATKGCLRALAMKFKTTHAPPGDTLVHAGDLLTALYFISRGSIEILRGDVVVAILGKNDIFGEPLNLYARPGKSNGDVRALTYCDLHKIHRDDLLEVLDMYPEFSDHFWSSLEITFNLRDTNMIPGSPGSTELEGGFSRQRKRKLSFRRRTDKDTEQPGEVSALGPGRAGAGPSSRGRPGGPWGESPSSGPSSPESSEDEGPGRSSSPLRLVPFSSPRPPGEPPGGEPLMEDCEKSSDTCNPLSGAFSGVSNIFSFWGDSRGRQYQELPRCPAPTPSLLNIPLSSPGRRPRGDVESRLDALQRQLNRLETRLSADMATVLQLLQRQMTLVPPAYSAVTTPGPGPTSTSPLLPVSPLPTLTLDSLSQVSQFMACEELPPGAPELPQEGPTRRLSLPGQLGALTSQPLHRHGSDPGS

[24] = Stability in human plasma assessed as interconversion into (S)-4-(5,6-Dimethoxybenzo[b]selenophen-2-yl)-2-ethyl-4-oxobutanoic acid incubated for 24 hrs by normal-phase HPLC analysis; type: ADME, cell-free
[25] = target: T1, Stimulator of interferon genes protein; experiment: Agonist activity at STING in cGAS knockout human THP-1 cells harboring IRF-inducible luciferase reporter construct assessed as increase in relative fluorescence unit incubated for 12 hrs by Quanti-luc reagent based assay; type: cell-based
Target sequence in this assay (Q86WV6 whole entry): as the sequence (Q86WV6 whole entry, looked up, change not shown) above

[26] = test system: 4T1-Luc; experiment: Antitumor activity against mouse 4T1-Luc cells implanted in naive BALB/c mouse assessed as tumor growth inhibition at 20 mg/kg, po administered once every 5 days and measured after 15 days by digital caliper analysis; type: functional, organism-based; details: time 15.0 day
[27] = target: T1, Stimulator of interferon genes protein; experiment: Agonist activity at STING in human THP-1 cells assessed as increase in IL6 mRNA expression at 10 uM measured after 3 hrs by qRT-PCR analysis; type: cell-based; details: filed as agonist
Target sequence in this assay (Q86WV6 whole entry): as the sequence (Q86WV6 whole entry, looked up, change not shown) above

[28] = test system: Mus musculus; experiment: Immunostimulatory activity in naive […] mouse implanted with mouse MC38 cells assessed as increase in T cells in spleen at 30 mg/kg, po by FACS analysis; type: functional, organism-based; details: MC-38
[29] = Toxicity in immunocompetent BALB/c mouse assessed as reduction in body weight at 30 mg/kg, po measured after 3 days; type: organism-based; details: in vivo, 72 h, time 3 day
[30] = test system: MC-38; experiment: In vivo activation of STING in naive […] mouse implanted with mouse MC38 cells assessed as increase in IL-6 level in plasma at 30 mg/kg, po administered as single dose and measured after 4 hrs by ELISA; type: functional, organism-based

CC[C@H](CC(=O)c1cc2cc(OC)c(OC)cc2[se]1)C(=O)O
Activity [1]: Active | AUC(0-inf) [2]: 316 µg·h/mL | Activity [3]: Active | remaining at 2 h, 1 µM [4]: 100% | Activity [5]: Active | Cmax [6]: 58.2 µg/mL | remaining at 24 h, 1 µM [7]: 98% | Kd [8]: 58 µM | logP [9]: 2.4 | Fu [10]: 0.07% | EC50 [11]: 5.71 µM | solubility thermodynamic at 24 h [12]: 30 µg/mL (≈ 81.2 µM) | Activity [13]: Active | half-life [14]: 1.04 h | Activity [15]: 100% | Activity [16]: Non-Toxic | Vdss [17]: 0.38 L/kg | Activity [18]: Active | Activity [19]: Active | solubility thermodynamic at 24 h [20]: 1200 µg/mL (≈ 3250 µM) | Activity [21]: Active | AUC(0-inf) [22]: 29.4 µg·h/mL | inhibition at 5 min, 10 µM [23]: -0.7% | Stability [24]: Stable | EC50 [25]: 5.19 µM | Activity [26]: Active | Activity [27]: Active | Activity [28]: Active | Activity [29]: Non-Toxic | Activity [30]: Active
